According to ChEMBL document CHEMBL2074166, “Transport of fluorescein in MDCKII-MRP1 transfected cells and mrp1-knockout mice” (Biochem Biophys Res Commun, 2001):

Target: Multidrug resistance-associated protein 1 (Homo sapiens, UniProt P33527)
Assay: TP_TRANSPORTER: intracellular accumulation in MRP1-expressing MDCKII cells
Type: functional, cell-based
Details: dog, mdck-ii

Sequence of Multidrug resistance-associated protein 1 (P33527 whole entry): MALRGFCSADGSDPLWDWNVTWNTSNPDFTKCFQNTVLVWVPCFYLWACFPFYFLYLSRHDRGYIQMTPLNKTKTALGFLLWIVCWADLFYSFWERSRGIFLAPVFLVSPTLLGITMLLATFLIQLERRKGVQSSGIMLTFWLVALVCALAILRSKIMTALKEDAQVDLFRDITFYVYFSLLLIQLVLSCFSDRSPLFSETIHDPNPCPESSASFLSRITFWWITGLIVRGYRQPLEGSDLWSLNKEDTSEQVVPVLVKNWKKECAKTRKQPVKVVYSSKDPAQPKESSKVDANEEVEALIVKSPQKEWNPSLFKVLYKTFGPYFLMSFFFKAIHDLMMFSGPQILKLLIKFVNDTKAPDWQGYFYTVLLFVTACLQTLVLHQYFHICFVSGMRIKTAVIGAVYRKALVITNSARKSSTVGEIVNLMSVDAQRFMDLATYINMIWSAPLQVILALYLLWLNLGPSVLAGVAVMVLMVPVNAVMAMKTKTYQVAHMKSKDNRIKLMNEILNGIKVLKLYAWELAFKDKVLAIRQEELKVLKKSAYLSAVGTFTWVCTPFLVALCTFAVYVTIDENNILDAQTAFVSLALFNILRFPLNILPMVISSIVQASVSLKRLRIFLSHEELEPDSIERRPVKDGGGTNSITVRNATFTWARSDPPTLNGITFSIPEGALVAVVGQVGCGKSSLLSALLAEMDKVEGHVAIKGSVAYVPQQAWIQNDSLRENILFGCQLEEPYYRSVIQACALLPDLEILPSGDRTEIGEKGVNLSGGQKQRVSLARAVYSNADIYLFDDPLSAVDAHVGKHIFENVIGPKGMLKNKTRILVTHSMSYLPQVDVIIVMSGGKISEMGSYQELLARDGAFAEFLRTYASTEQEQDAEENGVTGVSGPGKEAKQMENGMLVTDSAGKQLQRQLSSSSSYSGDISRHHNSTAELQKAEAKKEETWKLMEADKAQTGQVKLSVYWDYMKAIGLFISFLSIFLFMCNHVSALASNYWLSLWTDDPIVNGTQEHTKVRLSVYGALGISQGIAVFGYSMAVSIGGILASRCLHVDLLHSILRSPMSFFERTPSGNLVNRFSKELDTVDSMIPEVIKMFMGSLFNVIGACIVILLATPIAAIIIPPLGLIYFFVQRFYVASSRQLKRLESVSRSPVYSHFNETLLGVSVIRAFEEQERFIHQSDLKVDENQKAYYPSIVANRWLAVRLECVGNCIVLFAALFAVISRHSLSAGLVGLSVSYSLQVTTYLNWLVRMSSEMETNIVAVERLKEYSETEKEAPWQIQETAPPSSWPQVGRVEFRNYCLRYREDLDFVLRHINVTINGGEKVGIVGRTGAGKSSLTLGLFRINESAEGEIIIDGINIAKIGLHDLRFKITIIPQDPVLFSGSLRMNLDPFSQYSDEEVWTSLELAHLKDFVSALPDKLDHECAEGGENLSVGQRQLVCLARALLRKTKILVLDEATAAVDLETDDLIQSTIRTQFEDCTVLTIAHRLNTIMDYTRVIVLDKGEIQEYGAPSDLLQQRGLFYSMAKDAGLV

SMILES: O=C1OC2(c3ccc(O)cc3Oc3cc(O)ccc32)c2ccccc21 [FLUORESCEIN]
- Activity: substrate [+]
